Results reported in US11384115B2, “Nuclear sulfated oxysterol, potent regulator of lipid homeostasis, for therapy of hypercholesterolemia, hypertriglycerides, fatty liver diseases, and atherosclerosis” (Virginia Commonwealth University, priority 2004, dated 2022).

Legend:
PPARγ = molecular target: T1, PPARγ (Homo sapiens, UniProt P37231); test: Confocal immunofluorescence of intracellular PPARγ distribution in THP-1 macrophages; format: cell-based; conditions: compared with DMSO; 25 μM 25HC3S, 1 μM T0070907
T1 construct: THP-1 monocytes were differentiated to macrophages by adding 100 nM of phorbol 12-myristate 13-acetate (PMA); endogenous in cells; host or cells: THP-1 monocyte-derived macrophages (human, ATCC)
T1 sequence (P37231 1-505): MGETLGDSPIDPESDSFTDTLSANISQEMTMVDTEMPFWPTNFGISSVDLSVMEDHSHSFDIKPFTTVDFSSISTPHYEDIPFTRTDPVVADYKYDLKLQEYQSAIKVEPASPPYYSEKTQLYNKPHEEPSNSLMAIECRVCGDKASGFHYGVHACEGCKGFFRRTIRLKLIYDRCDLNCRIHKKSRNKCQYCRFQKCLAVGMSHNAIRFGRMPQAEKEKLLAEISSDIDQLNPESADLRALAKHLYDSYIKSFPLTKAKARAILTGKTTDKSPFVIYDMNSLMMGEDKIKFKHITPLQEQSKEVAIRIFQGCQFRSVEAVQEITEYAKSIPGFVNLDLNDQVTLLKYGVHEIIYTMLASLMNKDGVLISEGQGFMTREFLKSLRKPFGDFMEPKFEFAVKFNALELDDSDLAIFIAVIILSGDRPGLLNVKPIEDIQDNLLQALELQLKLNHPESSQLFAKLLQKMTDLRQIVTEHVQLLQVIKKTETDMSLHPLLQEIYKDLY
Procedure: Confocal microscopy analysis of intracellular translocation of PPARγ protein distribution. The nuclear marker was stained with DAP1 and PPARγ protein was detected by anti-PPARγ immunofluorescence.
THP-1 derived macrophages were cultured on coverslips in six-well plates and treated with different concentrations of 25HC and 25HC3S for 4 hrs. The cells on coverslips were washed with PBS, fixed with 3.7% formaldehyde for 10 min at 4° C., and then rinsed three times with PBS at room temperature. They were then permeabilized with PBS containing 0.1% of TritonX-100 for 3 min and washed with PBS before blocking by incubation with 5% of normal goat serum in PBS overnight at 4° C. For interaction with primary antibodies, cells were incubated with 2.5% normal goat serum in PBS containing PPARγ antibody for 1 hr in an incubator. Cells were washed in PBS containing 0.05% of Tween 20 (3×10 min). The bound primary antibodies were visualized with Alexa Fluor 488 goat anti-mouse IgG. The minor groove of double stranded DNA as a nuclear marker was stained by DAPI. Afterwashing, coverslips were mounted on slides and viewed with a Zeiss LSM 510 Meta confocal microscope.

HMG CoA reductase = test: Western blot of HMG CoA reductase protein in HepG2 cells; format: cell-based, human
Procedure: FIGS. 15A-15D. 25HC3S regulates HMGR mRNA Expression. Real time RT-PCR analysis of HMG CoA R reductase expression in HepG2 cells (FIGS. 15A and 15B). Western blot analysis of protein levels of HMG CoA reductase (FIG. 15C). Total RNAs were purified using SV Total RNA Isolation Kit (Promega) from the cells treated with 25HC3S at concentrations as indicated (FIG. 15A) and incubation at 12 μM of 25HC3S for the different times (effect on HMG CoA mRNA) (FIG. 15B). Two μg of total RNA was used for cDNA preparation (RT) and performed as manufacture recommended (Invitrogen), and 10 ng of cDNA was used for real time PCR. The expression levels were normalized to GAPDH. The bands of HMG CoA reductase (HMGR) were quantitated by laser density scanning. Each value represents mean of three experiments±standard derivation.
Microsomal proteins (80 μg) were separated on a 7.5% SDS-polyacrylamide denaturing gel according to the method of Laemmli (14). Following SDS-PAGE (Hoefer Vertical Slab Gel Unit; Heofer, San Francisco, Calif.), proteins were electrophoretically transferred overnight (4° C.) to Immobilon-P membranes using a Hoefer Trans Blot Electrophoretic Transfer cell. The membranes were then blocked for 90 minutes (25° C.) in blocking buffer (PBS, pH 7.4, 0.1% Tween, 5% non-fat dry milk). […] Protein bands were detected using the Amersham ECL plus Kit.

primary rat hepatocytes = test: Bile acid synthesis rate, conversion of [14C]cholesterol into methanol/water-soluble products; format: cell-based; conditions: addition to primary rat hepatocytes
Procedure: FIGS. 9A-9B. Effect of the nuclear oxysterol on cholesterol uptake and bile acid biosynthesis. Rat primary hepatocyes were treated with nuclear extracts (methanol/water phase) (A and B) or purified nuclear oxysterol dissolved in control nuclear extract (C) 24 hrs after plating them. Then [^14C]cholesterol was added as described in FIG. 1. Culture media were then harvested at 0, 6, 12, and 24 hrs and radioactivity quantified (A). Bile acid synthesis rates (B and C) were measured as the conversion of [^14C]cholesterol into methanol/water extractable counts as described in (9). Bile acid synthetic rates were determined by the addition of 2.5 μCi of [^14C]cholesterol to each […] mm plate of confluent primary rat hepatocyte cultures ( 2.5×10^7 cells) 24 hrs after plating. Media and cells were harvested […]. Conversion of [^14C]cholesterol into [^14C]-methanol-water soluble products was determined by scintillation counting after extraction with chloroform-methanol (2:1, vol/vol) of cells and of culture media. Rates of bile acid biosynthesis following recombinant adenovirus infection were calculated as the ratio of [^14C]-methanol-water soluble counts to the sum of chloroform plus methanol-water counts. Individual bile acids were identified by HPLC analysis as described above. […] The phases were collected separately and counted.

[1] = Liver triglycerides (Sudan IV staining) in mice on normal or high cholesterol diet; format: in vivo; conditions: normal or high cholesterol diet for 8 days
Description: To test the effect of diet on cholesterol levels, mice were provided with either a normal or high cholesterol diet for 8 days, and treated with the nuclear oxysterol as described above.

[2] = tested on: ABCA1, ABCG1, ABCG5, ABCG8 gene expression; test: LXR targeting gene expression by real time RT-PCR in primary hepatocytes; format: cell-based, mouse
Description: FIG. 10. ABCA1 (A1), ABCG1 (G1), LDL receptor (LDLR), ABCG5 (G5), and ABCG8 (G8) gene expression in primary mouse hepatocytes following addition of the purified nuclear oxysterol. At 24 hrs following the addition, cells were harvested and total RNAs were extracted and gene expression levels were quantitated by real time RT-PCR. β-Actin mRNA was used as total mRNA internal standard. The gene expression levels in cells […] were compared with those in control cells. Ten μg of total RNA was used for cDNA preparation (RT) and 10 ng of cDNA was used for PCR. The expression levels were normalized to β-actin.
Preliminary experiments have shown that the purified nuclear oxysterol up-regulates bile acid synthesis. To further investigate the mechanism of this activity, the effect of purified 5-cholesten-3β, 25-diol 3-sulphate on gene expression of LXR-targeted cholesterol transport proteins ABCA1, ABCG1, ABCG5, ABCG8, and LDLR was investigated. Purified nuclear sulfated oxysterol was added to primary hepatocytes in culture, and mRNA levels of the transport proteins were quantitated by real time RT-PCR. The primer sets and TagMan probes for detection of mRNA levels were purchased from AB Applied Biosystem (Foster City, Calif.) and the reactions were performed on an MJ Research DNA Engine Opticon instrument.

[3] = primary hepatocytes in culture, mRNA

nuclear PPARγ fluorescence intensities (PPARγ): increased
SMILES: C[C@H](CCCC(C)(C)O)[C@H]1CC[C@H]2[C@@H]3CC=C4C[C@@H](OS(=O)(=O)O)CC[C@]4(C)[C@H]3CC[C@]12C [25HC3S, 5-cholesten-3β, 25-diol 3-sulphate]
decrease of HMG CoA reductase protein level (HMG CoA reductase): 50%
effect on bile acid synthetic rates (primary rat hepatocytes): very similar to those in cells directly treated with the nuclear extracts from the StarD1 overexpressing cells
triglyceride levels in liver tissues [1]: significantly decreased
increased expression of ABCA1 [2, 3]: 2 fold
increased expression of ABCG5 [2, 3]: 1.6 fold
increased expression of ABCG8 [2, 3]: 3 fold
expression of ABCG1 ([2]; primary hepatocytes, compared with control cells): did not change
